{
  "source": "patent US20240190880A1",
  "about": "(THE REGENTS OF THE UNIVERSITY OF MICHIGAN, priority 2021, published 2024)",
  "biological_target": "T1, ER (Homo sapiens, UniProt P03372)",
  "T1 construct": "host or cells: T47D and MCF7 human breast cancer cells",
  "T1 sequence (P03372 1-595)": "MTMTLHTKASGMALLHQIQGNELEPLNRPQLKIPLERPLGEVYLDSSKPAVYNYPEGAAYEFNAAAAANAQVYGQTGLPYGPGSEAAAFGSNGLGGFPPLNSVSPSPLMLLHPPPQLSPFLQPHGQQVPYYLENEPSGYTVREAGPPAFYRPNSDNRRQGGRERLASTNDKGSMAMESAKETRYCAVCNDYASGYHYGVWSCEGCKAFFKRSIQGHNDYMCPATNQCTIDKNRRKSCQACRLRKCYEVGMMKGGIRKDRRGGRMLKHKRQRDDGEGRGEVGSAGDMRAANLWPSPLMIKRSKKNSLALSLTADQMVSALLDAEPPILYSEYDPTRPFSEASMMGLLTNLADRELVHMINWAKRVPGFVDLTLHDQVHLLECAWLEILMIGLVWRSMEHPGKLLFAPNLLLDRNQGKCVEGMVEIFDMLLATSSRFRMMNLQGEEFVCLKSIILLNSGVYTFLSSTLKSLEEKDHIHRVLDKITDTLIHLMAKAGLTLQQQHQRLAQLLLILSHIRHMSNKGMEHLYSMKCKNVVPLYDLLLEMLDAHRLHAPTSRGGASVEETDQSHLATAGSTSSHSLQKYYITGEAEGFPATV",
  "assay": "ER degradation activity, in-cell western blot analysis in T47D cells",
  "assay_type": "cell-based",
  "outline": "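In-cell western, T47D; compounds 16 h, 0.5% DMSO final; anti-rabbit-680/anti-mouse-800 secondaries, 1 h RT, dark; read on CLX imager. ER % vs untreated/DMSO wells (100%).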",
  "key": {"[1]": {"details": "16 hours, Table A does not say which cell line (T47D or MCF7), read-out: Potency (DC50)"}, "[2]": {"details": "compounds 16 hours, Table A does not say whether T47D or MCF7, read-out: Potency (DC50)"}},
  "note": "Read-outs that look alike come from different tables or passages of the source.",
  "data": [
    {"smiles": "O=C1CCC(N2C(=O)c3cc4c(cc3C2=O)CN([C@H]2CC[C@@H](NC3CCN(c5ccc([C@@H]6c7ccc(O)cc7CC[C@@H]6c6ccccc6)cc5)CC3)CC2)C4)C(=O)N1", "note": "(stereo partly drawn) [E334, 2-(2,6-dioxopiperidin-3-yl)-6-((1S,4s)-4-((1-(4-((1R,2S)-6-hydroxy-2-phenyl-1,2,3,4-tetrahydronaphthalen-1-yl)phenyl)piperidin-4-yl)amino)cyclohexyl)-6,7-dihydropyrrolo[3,4-f]isoindole-1,3(2H,5H)-dione]", "values": [
      {"measurement": "DC50", "setting": "[1]", "value": "> 0.1", "unit": "µM"}
    ]},
    {"smiles": "O=C1CCC(N2C(=O)c3cc4c(cc3C2=O)CN(C2CCN(C(=O)C3CCN(c5ccc([C@@H]6c7ccc(O)cc7CC[C@@H]6c6ccccc6)cc5)CC3)CC2)C4)C(=O)N1", "note": "(mixture of isomers) [E 13, Rac-2-(2,6-dioxopiperidin-3-yl)-6-(1-(1-(4-((1R,2S)-6-hydroxy-2-phenyl-1,2,3,4-tetrahydronaphthalen-1-yl)phenyl)piperidine-4-carbonyl)pi570 peridin-4-yl)-6,7-dihydropyrrolo[3,4-f]isoindole-1,3(2H,5H)-dione]", "values": [
      {"measurement": "DC50", "setting": "[1]", "value": "< 0.01", "unit": "µM"}
    ]},
    {"smiles": "COc1c2c(cc3c1CN(C1CCC(=O)NC1=O)C3=O)CN(CC(=O)N1CCC3(CC1)CCN(c1cc(F)c([C@@H]4c5ccc(O)cc5C[C@@H](C)N4CC(F)F)c(F)c1)CC3)C2", "note": "(stereo partly drawn) [E 461, 3-(6-(2-(9-(4-((1S,3R)-2-(2,2-difluoroethyl)-6-hydroxy-3-methyl-1,2,3,4-tetrahydroisoquinolin-1-yl)-3,5-difluorophenyl)-3,9-diazaspiro[5.5]undecan-3-yl)-2-oxoethyl)-4-methoxy-1-oxo-3,5,6,7-tetrahydropyrrolo[3,4-f]isoindol-2(1H)-yl)piperidine-2,6-dione]", "values": [
      {"measurement": "DC50", "setting": "[2]", "value": "< 0.01", "unit": "µM"}
    ]},
    {"smiles": "COc1c2c(cc3c1CN(C1CCC(=O)NC1=O)C3=O)CN(CC(=O)N1CCC3(CC1)CCN(c1cc(F)c([C@@H]4c5[nH]c6ccccc6c5C[C@@H](C)N4CC(F)F)c(F)c1)CC3)C2", "note": "(stereo partly drawn) [E 444, 3-(6-(2-(9-(4-((1R,3R)-2-(2,2-difluoroethyl)-3-methyl-2,3,4,9-tetrahydro-1H-pyrido[3,4-b]indol-1-yl)-3,5-difluorophenyl)-3,9-diazaspiro[5.5]undecan-3-yl)-2-oxoethyl)-4-methoxy-1-oxo-3,5,6,7-tetrahydropyrrolo[3,4-f]isoindol-2(1H)-yl)piperidine-2,6-dione]", "values": [
      {"measurement": "DC50", "setting": "[2]", "value": "< 0.01", "unit": "µM"}
    ]},
    {"smiles": "C[C@@H]1Cc2cc(O)ccc2[C@@H](c2c(F)cc(N3CC4(CCN(C(=O)CN5Cc6cc7c(cc6C5)C(=O)N(C5CCC(=O)NC5=O)C7=O)C4)C3)cc2F)N1CC(F)F", "note": "(stereo partly drawn) [E 43, 6-(2-(2-(4-((1S,3R)-2-(2,2-difluoroethyl)-6-hydroxy-3-methyl-1,2,3,4-tetrahydroisoquinolin-1-yl)-3,5-difluorophenyl)-2,6-diazaspiro[3.4]octan-6-yl)-2-oxoethyl)-2-(2,6-dioxopiperidin-3-yl)-6,7-dihydropyrrolo[3,4-f]isoindole-1,3(2H,5H)-dione]", "values": [
      {"measurement": "DC50", "setting": "[1]", "value": "< 0.01", "unit": "µM"}
    ]},
    {"smiles": "O=C1CCC(N2C(=O)c3cc4c(cc3C2=O)CN(C2CC3CCC(C2)N3CC2CCN(c3ccc([C@@H]5c6ccc(O)cc6CC[C@@H]5c5ccccc5)cc3)CC2)C4)C(=O)N1", "note": "(stereo partly drawn) [E 497, 2-(2,6-dioxopiperidin-3-yl)-6-(8-((1-(4-((1R,2S)-6-hydroxy-2-phenyl-1,2,3,4-tetrahydronaphthalen-1-yl)phenyl)piperidin-4-yl)methyl)-8-azabicyclo[3.2.1]octan-3-yl)-6,7-dihydropyrrolo[3,4-f]isoindole-1,3(2H,5H)-dione]", "values": [
      {"measurement": "DC50", "setting": "[2]", "value": "> 0.1", "unit": "µM"}
    ]},
    {"smiles": "O=C1CCC(N2C(=O)c3cc4c(cc3C2=O)CN(CC(=O)N2CCC3(CC2)CCN(c2ccc([C@@H]5c6ccc(O)cc6CC[C@@H]5c5ccccc5)cc2)CC3)C4)C(=O)N1", "note": "(stereo partly drawn) [E 149, 2-(2,6-dioxopiperidin-3-yl)-6-(2-(9-(4-((1R,2S)-6-hydroxy-2-phenyl-1,2,3,4-tetrahydronaphthalen-1-yl)phenyl)-3,9-diazaspiro[5.5]undecan-3-yl)-2-oxoethyl)-6,7-dihydropyrrolo[3,4-f]isoindole-1,3(2H,5H)-dione]", "values": [
      {"measurement": "DC50", "setting": "[1]", "value": "< 0.01", "unit": "µM"}
    ]},
    {"smiles": "O=C1CCC(N2C(=O)c3cc4c(cc3C2=O)CN(Cc2cnc(N3CC(Oc5ccc([C@@H]6c7ccc(O)cc7CC[C@@H]6c6ccccc6)cc5)C3)cn2)C4)C(=O)N1", "note": "(stereo partly drawn) [E 342, 2-(2,6-dioxopiperidin-3-yl)-6-((5-(3-(4-((1R,2S)-6-hydroxy-2-phenyl-1,2,3,4-tetrahydronaphthalen-1-yl)phenoxy)azetidin-1-yl)pyrazin-2-yl)methyl)-6,7-dihydropyrrolo[3,4-f]isoindole-1,3(2H,5H)-dione]", "values": [
      {"measurement": "DC50", "setting": "[1]", "value": "> 0.1", "unit": "µM"}
    ]},
    {"smiles": "O=C1CCC(N2C(=O)c3cc4c(cc3C2=O)CN(CC(=O)N2CCC3(CC2)CCN(c2cc(F)c([C@@H]5c6ccc(O)cc6CC[C@@H]5c5ccccc5)c(F)c2)CC3)C4)C(=O)N1", "note": "(mixture of isomers) [E 176, Rac-6-(2-(9-(3,5-difluoro-4-((1S,2S)-6-hydroxy-2-phenyl-1,2,3,4-tetrahydronaphthalen-1-yl)phenyl)-3,9-diazaspiro[5.5]undecan-3-yl)-2-oxoethyl)-2-(2,6-dioxopiperidin-3-yl)-6,7-dihydropyrrolo[3,4-f]isoindole-1,3(2H,5H)-dione]", "values": [
      {"measurement": "DC50", "setting": "[1]", "value": "> 0.1", "unit": "µM"}
    ]},
    {"smiles": "O=C1CCC(N2C(=O)c3cc4c(cc3C2=O)CN(C(=O)CN2CC3(CCN(c5ccc([C@@H]6c7ccc(O)cc7CC[C@@H]6c6ccc(F)cc6)cc5)CC3)C2)C4)C(=O)N1", "note": "(mixture of isomers) [E 127, 2-(2,6-dioxopiperidin-3-yl)-6-(2-(7-(4-((1R,2S)-2-(4-fluorophenyl)-6-hydroxy-1,2,3,4-tetrahydronaphthalen-1-yl)phenyl)-2,7-diazaspiro[3.5]nonan-2-yl)acetyl)-6,7-dihydropyrrolo[3,4-f]isoindole-1,3(2H,5H)-dione]", "values": [
      {"measurement": "DC50", "setting": "[1]", "value": "0.01 to 0.1", "unit": "µM"}
    ]},
    {"smiles": "O=C1CCC(N2C(=O)c3cc4c(cc3C2=O)CN(C2CCN(C(=O)C3(F)CCN(c5ccc([C@@H]6c7ccc(O)cc7CC[C@@H]6c6ccccc6)cc5)CC3)CC2)C4)C(=O)N1", "note": "(stereo partly drawn) [E 241, 2-(2,6-dioxopiperidin-3-yl)-6-(1-(4-fluoro-1-(4-((1R,2S)-6-hydroxy-2-phenyl-1,2,3,4-tetrahydronaphthalen-1-yl)phenyl)piperidine-4-carbonyl)piperidin-4-yl)-6,7-dihydropyrrolo[3,4-f]isoindole-1,3(2H,5H)-dione]", "values": [
      {"measurement": "DC50", "setting": "[1]", "value": "> 0.1", "unit": "µM"}
    ]},
    {"smiles": "O=C1CCC(N2C(=O)c3cc4c(cc3C2=O)CN(C(=O)[C@H]2CC[C@@H](N3CC(Oc5ccc([C@H]6c7ccc(O)cc7CC[C@H]6c6ccccc6)cc5)C3)CC2)C4)C(=O)N1", "note": "(stereo partly drawn) [E 389, 2-(2,6-dioxopiperidin-3-yl)-6-((1R,4s)-4-(3-(4-((1S,2R)-6-hydroxy-2-phenyl-1,2,3,4-tetrahydronaphthalen-1-yl)phenoxy)azetidin-1-yl)cyclohexane-1-carbonyl)-6,7-dihydropyrrolo[3,4-f]isoindole-1,3(2H,5H)-dione]", "values": [
      {"measurement": "DC50", "setting": "[1]", "value": "> 0.1", "unit": "µM"}
    ]},
    {"smiles": "C[C@@H]1Cc2c([nH]c3ccccc23)[C@@H](c2ccc(N3CCC(CN4CCC(N5Cc6cc7c(cc6C5)C(=O)N(C5CCC(=O)NC5=O)C7=O)CC4)CC3)cc2)N1CC(F)F", "note": "(stereo partly drawn) [E 264, 6-(1-((1-(4-((1R,3R)-2-(2,2-difluoroethyl)-3-methyl-2,3,4,9-tetrahydro-1H-pyrido[3,4-b]indol-1-yl)phenyl)piperidin-4-yl)methyl)piperidin-4-yl)-2-(2,6-dioxopiperidin-3-yl)-6,7-dihydropyrrolo[3,4-f]isoindole-1,3(2H,5H)-dione]", "values": [
      {"measurement": "DC50", "setting": "[1]", "value": "0.01 to 0.1", "unit": "µM"}
    ]}
  ]
}
